For one experiment, the target named is T1, PI3Kδ (Homo sapiens, UniProt O00329).
T1 construct: purchased Merck Millipore
Kind of experiment: PI3K kinases inhibition in vitro (ADP-Glo), PI3Kδ. The experiment is classed as biochemical. As for the experimental part: (§1) Tested compounds were dissolved in 100% DMSO, and thus obtained solutions were serially diluted in 1× reaction buffer. Recombinant kinase was diluted in a reaction mixture comprising 5× reaction buffer, substrate (1 mM sodium diacetate 4,5-bisphosphate phosphatydylinositol (PIP2) solution in 40 mM Tris buffer), and water. To the wells in a 96-wells plate, 5 μl of compounds solutions and 15 μl of the kinase solution in the reaction mixture were added. To initiate interaction of tested chemical compounds with the enzyme, the plate was incubated for 10 minutes at suitable temperature in a plate thermostat with orbital shaking at 600 rpm. Negative control wells contained all above reagents except tested compound and kinase, and positive control wells contained all above reagents except tested compounds. Enzymatic reaction was initiated by adding 5 μl of 150 μM ATP solution, subsequently the plate was incubated for 1 hour at 25° C. or 30° C. (depending on PI3K isoform tested) in plate thermostat with orbital shaking of the plate contents at 600 rpm. Reaction conditions are presented below in Table 12.
(§2) Detection of ADP formed in the enzymatic reaction was then performed using ADP-Glo Kinase Assay (Promega). To the wells of a 96-well plate 25 μl of ADP-Glo Reagent were added, and the plate was incubated for 40 minutes at 25° C. in a plate thermostat with orbital shaking at 600 rpm. Then to the wells of 96-well plate 50 μl of Kinase Detection Reagent were added and the plate was incubated for 40 minutes at 25° C. in a plate thermostat with orbital shaking at 600 rpm. After incubation time, luminescence intensity in a well was measured by Victor Light luminometer (Perkin Elmer, Inc.).
(§3) IC50 values were determined on the basis of luminescence intensity measurements in wells containing tested compounds at different concentrations and in control wells. These values were calculated with Graph Pad 5.03 software by fitting the curve using non-linear regression. Each compound was tested at least in quadruplicates (4 wells) on two 96-well plates using at least 4 wells of each of the controls.
On the technique in general: ADP-Glo turns the ADP formed in a reaction into a luminescent signal.

The next experiment addresses T2, PI3Kα (Homo sapiens, UniProt P42336).
T2 construct: purchased Carna Biosciences
Kind of experiment: PI3K kinases inhibition in vitro (ADP-Glo), PI3Kα. It is filed as biochemical. As to the method:
as §1, §2, §3

Setting [1] is: averaged, recombinant kinase, 25° C., 1 h, PIP2 30 μM, read-out: PI3Kδ IC50.

Read-outs that look alike come from different tables or passages of the source.

T2 sequence (P42336 whole entry): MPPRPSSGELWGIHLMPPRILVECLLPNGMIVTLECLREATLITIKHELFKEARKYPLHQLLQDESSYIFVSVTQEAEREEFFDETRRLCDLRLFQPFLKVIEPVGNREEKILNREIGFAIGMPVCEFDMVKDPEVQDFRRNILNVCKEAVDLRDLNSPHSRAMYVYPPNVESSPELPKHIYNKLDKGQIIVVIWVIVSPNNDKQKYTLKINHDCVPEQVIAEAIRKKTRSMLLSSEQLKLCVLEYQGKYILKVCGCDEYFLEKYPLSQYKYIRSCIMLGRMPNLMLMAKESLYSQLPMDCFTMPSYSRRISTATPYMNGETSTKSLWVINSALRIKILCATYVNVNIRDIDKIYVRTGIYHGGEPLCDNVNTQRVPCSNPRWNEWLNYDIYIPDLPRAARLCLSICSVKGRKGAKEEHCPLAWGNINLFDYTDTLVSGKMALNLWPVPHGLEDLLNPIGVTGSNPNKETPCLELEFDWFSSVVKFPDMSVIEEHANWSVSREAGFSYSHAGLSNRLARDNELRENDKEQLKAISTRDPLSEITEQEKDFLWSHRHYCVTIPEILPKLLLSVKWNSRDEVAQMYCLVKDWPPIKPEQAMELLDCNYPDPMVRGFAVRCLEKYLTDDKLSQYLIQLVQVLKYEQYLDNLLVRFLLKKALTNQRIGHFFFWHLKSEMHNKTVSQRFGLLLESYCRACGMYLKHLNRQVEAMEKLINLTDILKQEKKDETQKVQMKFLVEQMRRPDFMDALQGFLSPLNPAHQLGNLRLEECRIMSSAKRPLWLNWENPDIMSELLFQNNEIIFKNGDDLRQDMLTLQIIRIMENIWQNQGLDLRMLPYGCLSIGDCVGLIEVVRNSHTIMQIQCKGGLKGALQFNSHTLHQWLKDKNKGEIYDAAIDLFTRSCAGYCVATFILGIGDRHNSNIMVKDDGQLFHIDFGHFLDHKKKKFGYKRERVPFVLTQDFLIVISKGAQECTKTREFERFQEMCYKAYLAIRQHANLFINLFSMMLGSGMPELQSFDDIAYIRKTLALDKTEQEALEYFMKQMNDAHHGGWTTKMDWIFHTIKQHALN
T2 sequence (P27986 whole entry partner): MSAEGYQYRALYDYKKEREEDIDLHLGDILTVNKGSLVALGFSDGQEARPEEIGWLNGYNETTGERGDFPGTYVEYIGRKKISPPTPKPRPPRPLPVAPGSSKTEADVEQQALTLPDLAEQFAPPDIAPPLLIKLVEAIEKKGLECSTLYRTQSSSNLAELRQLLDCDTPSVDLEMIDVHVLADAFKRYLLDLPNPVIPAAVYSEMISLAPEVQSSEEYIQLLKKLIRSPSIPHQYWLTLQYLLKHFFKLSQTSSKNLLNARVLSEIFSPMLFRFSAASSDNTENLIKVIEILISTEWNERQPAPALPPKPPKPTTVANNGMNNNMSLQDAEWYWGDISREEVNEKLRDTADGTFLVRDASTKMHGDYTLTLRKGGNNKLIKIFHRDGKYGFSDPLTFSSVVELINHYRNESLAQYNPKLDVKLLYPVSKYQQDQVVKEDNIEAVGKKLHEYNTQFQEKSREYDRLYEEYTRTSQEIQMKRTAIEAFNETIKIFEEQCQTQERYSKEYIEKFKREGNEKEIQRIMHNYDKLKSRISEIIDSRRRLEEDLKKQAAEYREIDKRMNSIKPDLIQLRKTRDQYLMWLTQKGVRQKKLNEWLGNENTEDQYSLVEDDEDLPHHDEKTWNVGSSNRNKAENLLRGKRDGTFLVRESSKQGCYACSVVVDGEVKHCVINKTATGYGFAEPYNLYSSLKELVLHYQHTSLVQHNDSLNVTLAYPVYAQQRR
T1 sequence (O00329 whole entry): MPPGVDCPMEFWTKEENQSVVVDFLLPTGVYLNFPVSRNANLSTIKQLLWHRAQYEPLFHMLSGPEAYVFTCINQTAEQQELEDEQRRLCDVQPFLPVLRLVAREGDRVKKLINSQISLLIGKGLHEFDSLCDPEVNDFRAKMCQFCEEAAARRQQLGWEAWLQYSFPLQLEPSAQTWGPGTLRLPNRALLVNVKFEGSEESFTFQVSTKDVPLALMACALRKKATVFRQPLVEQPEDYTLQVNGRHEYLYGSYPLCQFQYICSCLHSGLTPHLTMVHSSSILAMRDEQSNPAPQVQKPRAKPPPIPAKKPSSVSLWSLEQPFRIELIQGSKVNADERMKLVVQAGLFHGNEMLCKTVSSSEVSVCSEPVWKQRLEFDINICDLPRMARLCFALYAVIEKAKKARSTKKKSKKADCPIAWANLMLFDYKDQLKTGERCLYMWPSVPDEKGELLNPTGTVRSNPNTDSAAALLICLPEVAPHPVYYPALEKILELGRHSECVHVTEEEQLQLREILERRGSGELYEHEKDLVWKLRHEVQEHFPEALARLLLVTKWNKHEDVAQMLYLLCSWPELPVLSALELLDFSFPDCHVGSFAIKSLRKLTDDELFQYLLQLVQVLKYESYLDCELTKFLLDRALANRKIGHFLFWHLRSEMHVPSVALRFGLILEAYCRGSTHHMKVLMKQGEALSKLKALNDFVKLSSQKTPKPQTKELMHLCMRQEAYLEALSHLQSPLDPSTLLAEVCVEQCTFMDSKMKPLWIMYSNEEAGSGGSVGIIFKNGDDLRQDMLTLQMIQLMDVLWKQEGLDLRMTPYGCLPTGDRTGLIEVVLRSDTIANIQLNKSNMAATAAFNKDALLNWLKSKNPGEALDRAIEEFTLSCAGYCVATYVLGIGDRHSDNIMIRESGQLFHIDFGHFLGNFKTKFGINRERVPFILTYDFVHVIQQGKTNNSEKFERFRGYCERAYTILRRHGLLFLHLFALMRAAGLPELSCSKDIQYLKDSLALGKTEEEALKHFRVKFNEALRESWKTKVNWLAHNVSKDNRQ
T1 sequence (P27986 whole entry, further chain): as the sequence (P27986 whole entry partner) above

On to `O=S1(=O)CCN(Cc2cc3nc(-c4cccc5[nH]ccc45)cc(N4CCOCC4)n3n2)CC1` [Example 23, 2-((1,1-dioxothio-morpholin-1-yl)-methyl)-5-(1H-indol-4-yl)-7-(morpholin-4-yl)pyrazolo[1,5-a]-pyrimidine], for which the figures for the IC50 against PI3Kδ and at PI3Kα were 0.1 to 1 µM and more than 1 µM, respectively.

As to `CCc1nc2ccccc2n1-c1cc(N2CCOCC2)n2nc(CN3CCN(C(C)(C)C)CC3)cc2n1` [Example 47, 5-(2-ethylbenzimidazol-1-yl)-2-((4-tert-butylpiperazin-1-yl)methyl)-7-(morpholin-4-yl)pyrazolo[1,5-a]-pyrimidine], the half-inhibitory concentration (IC50) is less than 0.1 µM at PI3Kδ (setting [1]) and more than 1 µM at PI3Kα.

Consider `CS(=O)(=O)N1CCN(Cc2cc3nc(-c4cccc5[nH]ccc45)cc(N4CCOCC4)n3n2)CC1` [Example 2, 5-(1H-indol-4-yl)-2-((4-(methyl-sulphonyl)piperazin-1-yl)methyl)-7-(morpholin-4-yl)pyrazolo[1,5-a]-pyrimidine], for which the IC50 was 0.1 to 1 µM against PI3Kδ and more than 1 µM on PI3Kα.

Consider `COC(=O)C1CCN(Cc2cc3nc(-c4cccc5[nH]ccc45)cc(N4CCOCC4)n3n2)CC1` [Example 24, Methyl 1-((5-(1H-indol-4-yl)-7-(morpholin-4-yl)pyrazolo[1,5-a]-pyrimidin-2-yl)methyl)piperidin-4-carboxylate], for which the IC50 against PI3Kδ was 0.1 to 1 µM; at PI3Kα, more than 1 µM.

With `Cc1nc2ccccc2n1-c1cc(N2CCOCC2)n2nc(CN3CCC(C(C)(C)O)CC3)cc2n1` [Example 49, 5-(2-methylbenzimidazol-1-yl)-2-((4-(2-hydroxypropan-2-yl)-piperidin-1-yl)methyl)-7-(morpholin-4-yl)pyrazolo[1,5-a]-pyrimidine], the half-maximal inhibitory concentration (IC50) is 0.1 to 1 µM on PI3Kδ (setting [1]) and more than 1 µM on PI3Kα.

As for `COC1CN(C2CN(Cc3cc4nc(-n5c(C(F)F)nc6ccccc65)cc(N5CCOCC5)n4n3)C2)C1` [Example 67, 5-(2-(difluoromethyl)benzimidazol-1-yl)-2-((3-(3-methoxyazetidin-1-yl)azetidin-1-yl)methyl)-7-(morpholin-4-yl)pyrazolo[1,5-a]-pyrimidine], the IC50 on PI3Kδ (setting [1]) was less than 0.1 µM.

`O=C(Nc1ccccc1)NC1CCN(Cc2cc3nc(-c4cccc5[nH]ccc45)cc(N4CCOCC4)n3n2)CC1` [Example 37] displayed an IC50 on PI3Kδ of 0.1 to 1 µM.

As for `COc1ccc(N2CCN(Cc3cc4nc(-c5cccc6[nH]ccc56)cc(N5CCOCC5)n4n3)CC2)cc1` [Example 6, 5-(1H-indol-4-yl)-2-((4-(4-methoxyphenyl)piperazin-1-yl)-methyl)-7-(morpholin-4-yl)-pyrazolo[1,5-a]pyrimidine], the IC50 on PI3Kδ was 0.1 to 1 µM; against PI3Kα it was more than 1 µM.

For the compound `CC(C)(O)C1CCN(Cc2cc3nc(-n4c(C5CC5)nc5ccccc54)cc(N4CCOCC4)n3n2)CC1` [Example 55, 5-(2-cyclopropylbenzimidazol-1-yl)-2-((4-(2-hydroxypropan-2-yl)-piperidin-1-yl)methyl)-7-(morpholin-4-yl)pyrazolo[1,5-a]-pyrimidine], the values for the IC50 at PI3Kδ (setting [1]) and at PI3Kα were 0.1 to 1 µM and more than 1 µM, respectively.

For the compound `CCNC(=O)NC1CCN(Cc2cc3nc(-c4cccc5[nH]ccc45)cc(N4CCOCC4)n3n2)CC1` [Example 38], the IC50 is 0.1 to 1 µM on PI3Kδ and more than 1 µM against PI3Kα.

Turning to `CC(C)(C)N1CCN(Cc2cc3nc(-n4c(C5CC5)nc5ccccc54)cc(N4CCOCC4)n3n2)CC1` [Example 54, 5-(2-cyclopropylbenzimidazol-1-yl)-2-((4-tert-butylpiperazin-1-yl)-methyl)-7-(morpholin-4-yl)-pyrazolo[1,5-a]pyrimidine], the IC50 on PI3Kδ (setting [1]) is 0.1 to 1 µM; against PI3Kα, more than 1 µM.

As for `CC(C)(C)N1CCN(Cc2cc3nc(-c4cccc5[nH]ncc45)cc(N4CCOCC4)n3n2)CC1` [Example 12, 2-((4-tert-butylpiperazin-1-yl)methyl)-5-(1H-indazol-4-yl)-7-(morpholin-4-yl)pyrazolo[1,5-a]-pyrimidine], the IC50 at PI3Kδ (setting [1]) was less than 0.1 µM; against PI3Kα, more than 1 µM.

On to `c1cc(-c2cc(N3CCOCC3)n3nc(CN4CCN(CC5CC5)CC4)cc3n2)c2cc[nH]c2c1` [Example 26, 2-((4-(cyclopropylmethyl)piperazin-1-yl)methyl)-5-(1H-indol-4-yl)-7-(morpholin-4-yl)pyrazolo[1,5-a]-pyrimidine], for which the IC50 against PI3Kδ was less than 0.1 µM; at PI3Kα, more than 1 µM.

With `C[C@@H]1CN(C2CN(Cc3cc4nc(-n5c(C(F)F)nc6ccccc65)cc(N5CCOCC5)n4n3)C2)C[C@H](C)O1` [Example 65, 5-(2-(difluoromethyl)benzimidazol-1-yl)-2-((3-((2R,6S)-2,6-dimethylmorpholin-4-yl)azetidin-1-yl)methyl)-7-(morpholin-4-yl)-pyrazolo[1,5-a]pyrimidine], on PI3Kδ (setting [1]), the IC50 is less than 0.1 µM.

For the compound `c1cc(-c2cc(N3CCOCC3)n3nc(CN4CCN(C5COC5)CC4)cc3n2)c2cc[nH]c2c1` [Example 34], the IC50 against PI3Kδ was less than 0.1 µM; against PI3Kα it was more than 1 µM.

For `CC(C)c1nc2ccccc2n1-c1cc(N2CCOCC2)n2nc(CN3CCN(C(C)(C)C)CC3)cc2n1` [Example 52, 5-(2-iso-propylbenzimidazol-1-yl)-2-((4-tert-butylpiperazin-1-yl)-methyl)-7-(morpholin-4-yl)-pyrazolo[1,5-a]pyrimidine], the IC50 on PI3Kδ (setting [1]) is 0.1 to 1 µM; against PI3Kα, more than 1 µM.

In the case of `CN1CCN(Cc2cc3nc(-c4cccc5[nH]ccc45)cc(N4CCOCC4)n3n2)CC1` [Example 21, 5-(1H-indol-4-yl)-2-((4-methyl-piperazin-1-yl)methyl)-7-(morpholin-4-yl)pyrazolo[1,5-a]-pyrimidine], the IC50 against PI3Kδ is 0.1 to 1 µM; on PI3Kα, more than 1 µM.

On to `CC(C)(O)C1CCN(Cc2cc3nc(-c4cnc(N)nc4)cc(N4CCOCC4)n3n2)CC1` [Example 18, 5-(2-aminopyrimidin-5-yl)-2-((4-(2-hydroxypropan-2-yl)piperidin-1-yl)methyl)-7-(morpholin-4-yl)-pyrazolo[1,5-a]pyrimidine], for which the values for the IC50 at PI3Kδ (setting [1]) and at PI3Kα were 0.1 to 1 µM and more than 1 µM, respectively.

`CN1CCN(C2CCN(Cc3cc4nc(-c5c(F)ccc6[nH]ccc56)cc(N5CCOCC5)n4n3)CC2)CC1` [Example 14, 5-(5-fluoro-1H-indol-4-yl)-2-((4-(4-methylpiperazin-1-yl)piperidin-1-yl)methyl)-7-(morpholin-4-yl)-pyrazolo[1,5-a]pyrimidine]: the IC50 at PI3Kδ (setting [1]) was less than 0.1 µM; at PI3Kα it was more than 1 µM.

With `c1cc(-c2cc(N3CCOCC3)n3nc(CN4CCN(C5CCCC5)CC4)cc3n2)c2cc[nH]c2c1` [Example 27, 2-((4-cyclopentylpiperazin-1-yl)-methyl)-5-(1H-indol-4-yl)-7-(morpholin-4-yl)pyrazolo[1,5-a]-pyrimidine], the IC50 at PI3Kδ was less than 0.1 µM; on PI3Kα it was more than 1 µM.

Turning to `Cc1nc2ccccc2n1-c1cc(N2CCOCC2)n2nc(CN3CCN(C(C)(C)C)CC3)cc2n1` [Example 48, 5-(2-methylbenzimidazol-1-yl)-2-((4-tert-butylopiperazin-1-yl)-methyl)-7-(morpholin-4-yl)-pyrazolo[1,5-a]pyrimidine], the IC50 is 0.1 to 1 µM on PI3Kδ (setting [1]) and more than 1 µM at PI3Kα.

As to `CC(C)c1nc2ccccc2n1-c1cc(N2CCOCC2)n2nc(CN3CCC(C(C)(C)O)CC3)cc2n1` [Example 53, 5-(2-iso-propylbenzimidazol-1-yl)-2-((4-(2-hydroxypropan-2-yl)-piperidin-1-yl)methyl)-7-(morpholin-4-yl)pyrazolo[1,5-a]-pyrimidine], the values for the IC50 on PI3Kδ (setting [1]) and at PI3Kα were 0.1 to 1 µM and more than 1 µM, respectively.

In the case of `c1cc(-c2cc(N3CCOCC3)n3nc(CN4C[C@@H]5C[C@H]4CN5C4COC4)cc3n2)c2cc[nH]c2c1` [Example 36, 5-(1H-indol-4-yl)-2-(((1S, 4S)-2-(oxetan-3-yl)-2,5-diazabicyclo [2.2.1]hept-2-yl)methyl)-7-(morpholin-4-yl)pyrazolo[1,5-a]-pyrimidine], the IC50 at PI3Kδ is less than 0.1 µM; against PI3Kα, more than 1 µM.

`CC(C)(O)C1CCN(Cc2cc3nc(-c4cccc5[nH]ncc45)cc(N4CCOCC4)n3n2)CC1` [Example 15, 2-((4-(2-hydroxypropan-2-yl)-piperidin-1-yl)methyl)-5-(1H-indazol-4-yl)-7-(morpholin-4-yl)-pyrazolo[1,5-a]pyrimidine]: the 50% inhibitory concentration (IC50) was 0.1 to 1 µM on PI3Kδ (setting [1]) and more than 1 µM against PI3Kα.

Consider `CCc1nc2ccccc2n1-c1cc(N2CCOCC2)n2nc(CN3CCN(S(C)(=O)=O)CC3)cc2n1` [Example 42, 5-(2-ethylbenzimidazol-1-yl)-2-((4-(methylsulphonyl)piperazin-1-yl)methyl)-7-(morpholin-4-yl)-pyrazolo[1,5-a]pyrimidine], for which the figures for the IC50 on PI3Kδ (setting [1]) and on PI3Kα were 0.1 to 1 µM and more than 1 µM, respectively.

By IC50 is commonly meant the concentration that inhibits the measured activity by half.
